# From patent US20080167282A1, “Use of Inhibitors of Steroid Activity for the Treatment of Substance Related Disorders” (priority 2005, published 2008)
# Test: Study on the cocaine addiction: case report of a patient treated for hirsutism
# Format: in vivo, human
# Details: cocaine user; 50 mg 1 cp daily; after 6 months of therapy (treatment lasted approximately 9 months)
# Description: In the course of the follow up transaminases and hormones were assayed.
smiles,measurement,value
CC(=O)O[C@]1(C(C)=O)CC[C@H]2[C@@H]3C=C(Cl)C4=CC(=O)[C@@H]5C[C@@H]5[C@]4(C)[C@H]3CC[C@@]21C [cyproterone acetate],cocaine use status during follow up,drug free
